Measurements: ChEMBL document CHEMBL1201862, “PubChem BioAssay data set” (2004)
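Where inhibition never reached the appropriate level, the endpoint shown equals the highest concentration tested. Otherwise, values were interpolated linearly from a five-concentration, 48-hour dose response in 96-well plates. The concentration for 50% growth inhibition is given as GI50.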 Activity calls are given as the source filed them. Rule as the data show it: active = GI50 up to about 1.1 µM and inactive = higher.

How the values were obtained:
Assay in all cases: NCI tumour cell line growth inhibition, 48 h
PC-3 = test system: PC-3
TK-10 = test system: TK-10
NCI-H522 = test system: NCI-H522
SK-MEL-28 = test system: SK-MEL-28
OVCAR-8 = test system: OVCAR-8
T47D = test system: T47D
HCC 2998 = test system: HCC 2998
786-0 = test system: 786-0
OVCAR-5 = test system: OVCAR-5
HOP-62 = test system: HOP-62
UACC-257 = test system: UACC-257
CCRF-CEM = test system: CCRF-CEM
NCI/ADR-RES = test system: NCI/ADR-RES
RXF 393 = test system: RXF 393
SF-295 = test system: SF-295
MDA-MB-435 = test system: MDA-MB-435
MOLT-4 = test system: MOLT-4
SR = test system: SR
NCI-H460 = test system: NCI-H460
HL-60 = test system: HL-60

SMILES | GI50 (PC-3) | GI50 (TK-10) | GI50 (NCI-H522) | GI50 (SK-MEL-28) | GI50 (OVCAR-8) | GI50 (T47D) | GI50 (HCC 2998) | GI50 (786-0) | GI50 (OVCAR-5) | GI50 (HOP-62) | GI50 (UACC-257) | GI50 (CCRF-CEM) | GI50 (NCI/ADR-RES) | GI50 (RXF 393) | GI50 (SF-295) | GI50 (MDA-MB-435) | GI50 (MOLT-4) | GI50 (SR) | GI50 (NCI-H460) | GI50 (HL-60)
Nc1nc(N)c2ncn(-c3ccc(Cl)c(Cl)c3)c2n1 | 24.1 µM (inactive) | 16.7 µM (inactive) | 28.4 µM (inactive) | 60.5 µM (inactive) | 24.5 µM (inactive) | 42.1 µM (inactive) | 27.4 µM (inactive) | 14.1 µM (inactive) | 42.7 µM (inactive) | 29.6 µM (inactive) | 27.4 µM (inactive) | 3.71 µM (inactive) | 37.7 µM (inactive) | 12.7 µM (inactive) | 28.1 µM (inactive) | 33.7 µM (inactive) | 12.2 µM (inactive) | – | – | –
O=C1c2ccccc2/C=C\C(c2ccccc2)=N/N1c1ccccc1Cl | 6.73 µM (inactive) | 42.8 µM (inactive) | 12.2 µM (inactive) | 24 µM (inactive) | 27.4 µM (inactive) | – | 30.3 µM (inactive) | 29.2 µM (inactive) | 72.3 µM (inactive) | 23.2 µM (inactive) | 26.8 µM (inactive) | 34.5 µM (inactive) | 15.9 µM (inactive) | 19.2 µM (inactive) | 26.1 µM (inactive) | 3.44 µM (inactive) | 15.3 µM (inactive) | > 10 µM (inactive) | 28.6 µM (inactive) | 12.7 µM (inactive)
COc1cc2c3c(n(C)c(=O)c2cc1OC)-c1cc2c(cc1/C3=C\CCCCl)OCO2 | > 100 µM (inactive) | 20.1 µM (inactive) | 20.8 µM (inactive) | 89.7 µM (inactive) | 49.4 µM (inactive) | 30.3 µM (inactive) | 23 µM (inactive) | 16.7 µM (inactive) | > 100 µM (inactive) | – | 36.9 µM (inactive) | 8.95 µM (inactive) | 46.8 µM (inactive) | 12.9 µM (inactive) | 19.9 µM (inactive) | – | 6.68 µM (inactive) | – | 43.8 µM (inactive) | 55.1 µM (inactive)
O=C1C(C(O)(C(F)(F)F)C(F)(F)F)CCC1C(O)(C(F)(F)F)C(F)(F)F (configuration not stated) | 0.176 µM (active) | 42.1 µM (inactive) | 1.29 µM (inactive) | 3.16 µM (inactive) | 8.75 µM (inactive) | – | 0.323 µM (active) | 3.87 µM (inactive) | 9.98 µM (inactive) | 0.569 µM (active) | 7.67 µM (inactive) | 1.15 µM (inactive) | 2.33 µM (inactive) | 0.346 µM (active) | 0.849 µM (active) | 13.2 µM (inactive) | 0.341 µM (active) | 0.215 µM (active) | 8.83 µM (inactive) | 1.16 µM (inactive)
CC(C)(C)c1cc(C2COC(c3cc(C(C)(C)C)c(O)c(C(C)(C)C)c3)CO2)cc(C(C)(C)C)c1O (configuration not stated) | > 100 µM (inactive) | > 100 µM (inactive) | > 100 µM (inactive) | > 100 µM (inactive) | > 100 µM (inactive) | > 100 µM (inactive) | – | > 100 µM (inactive) | > 100 µM (inactive) | > 100 µM (inactive) | > 100 µM (inactive) | > 100 µM (inactive) | > 100 µM (inactive) | > 100 µM (inactive) | > 100 µM (inactive) | > 100 µM (inactive) | – | – | – | –
C[Si](C)(C)c1ccc(-c2c3ccc(-c4cc(Br)cc(Br)c4)nc3nc3nc(-c4cc(Br)cc(Br)c4)ccc23)cc1 | > 100 µM (inactive) | > 100 µM (inactive) | > 100 µM (inactive) | > 100 µM (inactive) | – | > 100 µM (inactive) | > 100 µM (inactive) | > 100 µM (inactive) | > 100 µM (inactive) | > 100 µM (inactive) | > 100 µM (inactive) | – | > 100 µM (inactive) | – | > 100 µM (inactive) | > 100 µM (inactive) | – | – | > 100 µM (inactive) | –
COc1ccc(C2SC(=N)Nc3c2c(C)nn3C(=O)c2ccc(Cl)cc2)cc1 (configuration not stated) | > 10 µM (inactive) | > 10 µM (inactive) | > 10 µM (inactive) | > 10 µM (inactive) | > 10 µM (inactive) | > 10 µM (inactive) | > 10 µM (inactive) | > 10 µM (inactive) | > 10 µM (inactive) | > 10 µM (inactive) | > 10 µM (inactive) | > 10 µM (inactive) | > 10 µM (inactive) | > 10 µM (inactive) | > 10 µM (inactive) | > 10 µM (inactive) | > 10 µM (inactive) | – | > 10 µM (inactive) | > 10 µM (inactive)
CCN(CC)CCNC(=O)c1cc2cc(NC(=O)c3cc4cc(N)ccc4[nH]3)ccc2[nH]1 | – | > 100 µM (inactive) | 19.1 µM (inactive) | > 100 µM (inactive) | 32.2 µM (inactive) | 20.3 µM (inactive) | 17.1 µM (inactive) | 35.8 µM (inactive) | > 100 µM (inactive) | 55 µM (inactive) | 51.1 µM (inactive) | 9.53 µM (inactive) | > 100 µM (inactive) | 20.3 µM (inactive) | > 100 µM (inactive) | 17.7 µM (inactive) | 13.2 µM (inactive) | 5.9 µM (inactive) | 34.6 µM (inactive) | –
C=C[C@@]1(C)CC[C@@H]2[C@@]3(C1)O[C@H]3CC1[C@](C)(C(=O)OC)CCC[C@@]12C (some centres not stated) | 30.4 µM (inactive) | 19.1 µM (inactive) | 16.9 µM (inactive) | 21.1 µM (inactive) | 21.3 µM (inactive) | 20.7 µM (inactive) | 17.3 µM (inactive) | 20.3 µM (inactive) | 16.9 µM (inactive) | 20 µM (inactive) | 19.3 µM (inactive) | – | 20 µM (inactive) | 16.1 µM (inactive) | 15 µM (inactive) | 34 µM (inactive) | 20 µM (inactive) | – | 16.4 µM (inactive) | –
CC1(C)c2ccccc2C(=O)C12CCC(=O)CC2 | > 100 µM (inactive) | > 100 µM (inactive) | > 100 µM (inactive) | > 100 µM (inactive) | > 100 µM (inactive) | > 100 µM (inactive) | > 100 µM (inactive) | > 100 µM (inactive) | > 100 µM (inactive) | > 100 µM (inactive) | > 100 µM (inactive) | > 100 µM (inactive) | > 100 µM (inactive) | 12.4 µM (inactive) | > 100 µM (inactive) | – | > 100 µM (inactive) | > 100 µM (inactive) | > 100 µM (inactive) | > 100 µM (inactive)
CN(C)N1C(=O)c2ccccc2NC1c1ccccc1 (configuration not stated) | > 100 µM (inactive) | > 100 µM (inactive) | > 100 µM (inactive) | > 100 µM (inactive) | > 100 µM (inactive) | > 100 µM (inactive) | > 100 µM (inactive) | > 100 µM (inactive) | > 100 µM (inactive) | > 100 µM (inactive) | > 100 µM (inactive) | > 100 µM (inactive) | > 100 µM (inactive) | – | > 100 µM (inactive) | > 100 µM (inactive) | > 100 µM (inactive) | – | > 100 µM (inactive) | –
CCOC(=O)CCC(C(=O)OCC)n1nnc2cc(Nc3c(C)[n+]([O-])c4cc(Cl)ccc4[n+]3[O-])ccc21 (configuration not stated) | > 100 µM (inactive) | > 100 µM (inactive) | > 100 µM (inactive) | – | > 100 µM (inactive) | 47.2 µM (inactive) | – | 59.2 µM (inactive) | 62.8 µM (inactive) | 46.8 µM (inactive) | 40.1 µM (inactive) | 35.6 µM (inactive) | 35.1 µM (inactive) | 53.6 µM (inactive) | 68.5 µM (inactive) | > 100 µM (inactive) | 49.1 µM (inactive) | – | 48.3 µM (inactive) | 41.3 µM (inactive)
Cn1c(SCc2ccc([N+](=O)[O-])cc2)nnc1C12CC3CC(CC(C3)C1)C2 | > 10 µM (inactive) | – | > 10 µM (inactive) | > 10 µM (inactive) | > 10 µM (inactive) | > 10 µM (inactive) | > 10 µM (inactive) | > 10 µM (inactive) | > 10 µM (inactive) | > 10 µM (inactive) | – | > 10 µM (inactive) | > 10 µM (inactive) | > 10 µM (inactive) | > 10 µM (inactive) | > 10 µM (inactive) | > 10 µM (inactive) | – | > 10 µM (inactive) | > 10 µM (inactive)
CN(C)CCCSc1nc2ccccc2[nH]1 | – | > 100 µM (inactive) | > 100 µM (inactive) | > 100 µM (inactive) | > 100 µM (inactive) | > 100 µM (inactive) | > 100 µM (inactive) | > 100 µM (inactive) | > 100 µM (inactive) | > 100 µM (inactive) | > 100 µM (inactive) | – | > 100 µM (inactive) | > 100 µM (inactive) | > 100 µM (inactive) | > 100 µM (inactive) | – | > 100 µM (inactive) | > 100 µM (inactive) | –
CC(=O)OCC(OC(C)=O)C1C[C@H]2O[C@@H]3[C@H](C[C@H]2O1)O[C@@]1(C[C@@H]3C)C[C@H](C)[C@@H]2O[C@]3(C[C@@H]2O1)C[C@H]1O[C@H]2[C@H](C)[C@H]4OC(=O)C[C@H]5CC[C@@H]6OC7[C@H]8O[C@]9(CC[C@H]%10CC(=O)[C@H](CC[C@H]%11C[C@@H](C)C(=O)C(C[C@@H]4O[C@H]2C[C@H]1O3)O%11)O%10)CC8O[C@@H]7[C@@H](O9)[C@H]6O5 (some centres not stated) | 0.00337 µM (active) | – | 0.00051 µM (active) | 0.011 µM (active) | 0.00964 µM (active) | – | 0.003 µM (active) | 0.00308 µM (active) | – | 0.00505 µM (active) | – | 0.00436 µM (active) | 0.102 µM (active) | 0.00283 µM (active) | 0.00242 µM (active) | 0.000195 µM (active) | 0.0184 µM (active) | 0.000233 µM (active) | 0.00315 µM (active) | 0.000489 µM (active)
